Key:
[1] = biological target: T1, Recombinant human JAK1 catalytic domain (Homo sapiens, UniProt P23458); assay: JAK1 inhibition assay; format: biochemical; settings: semi-quantitative score
T1 construct: Recombinant human JAK1 catalytic domain (amino acids 850-1154; catalog number 08-144); purchased Carna Biosciences 08-144
Protocol: Recombinant human JAK1 catalytic domain (amino acids 850-1154; catalog number 08-144) was purchased from Carna Biosciences. 10 ng of JAK1 was incubated with 12.5 μg polyGT substrate (Sigma catalog number P0275) in kinase reaction buffer (15 mM Tris-HCl pH 7.5, 1 mM DTT, 0.01% Tween-20, 10 mM MgCl2, 2 μM non-radioactive ATP, 0.25 μCi 33P-gamma-ATP (GE Healthcare, catalog number AH9968) final concentrations) with or without 5 μL containing test compound or vehicle (DMSO, 1% final concentration), in a total volume of 25 μL, in a polypropylene 96-well plate (Greiner, V-bottom). After 45 min at 30° C., reactions were stopped by adding of 25 μL/well of 150 mM phosphoric acid. All of the terminated kinase reaction was transferred to prewashed (75 mM phosphoric acid) 96 well filter plates (Perkin Elmer catalog number 6005177) using a cell harvester (Perkin Elmer). Plates were washed 6 times with 300 μL per well of a 75 mM phosphoric acid solution and the bottom of the plates was sealed. 40 μL/well of Microscint-20 was added, the top of the plates was sealed and readout was performed using the Topcount (Perkin Elmer). Kinase activity was calculated by subtracting counts per minute (cpm) obtained in the presence of a positive control inhibitor (10 μM staurosporine) from cpm obtained in the presence of vehicle. The ability of a test compound to inhibit this activity was determined as: Percentage inhibition=((cpm determined for sample with test compound present−cpm determined for sample with positive control inhibitor)divided by(cpm determined in the presence of vehicle−cpm determined for sample with positive control inhibitor))*100%.
(§1) Dose dilution series were prepared for the compounds enabling the testing of dose-response effects in the JAK1 assay and the calculation of the IC50 for each compound. Each compound was routinely tested at concentration of 20 μM followed by a 1/3 serial dilution, 8 points (20 μM-6.67 μM-2.22 μM-740 nM-247 nM-82 nM-27 nM-9 nM) in a final concentration of 1% DMSO.

[2] = Microsomal stability, rat; format: in vitro ADME; settings: rat liver microsomes, 3 μM compound, 37° C.
Protocol: A 10 mM stock solution of compound in DMSO was diluted 1000 fold in a 182 mM phosphate buffer pH 7.4 in a 96 deep well plate (Greiner, Cat no. 780285) and pre-incubated at 37° C.
40 μL of deionised water was added to a well of a polypropylene Matrix 2D barcode labelled storage tube (Thermo Scientific) and pre-incubated at 37° C.
A Glucose-6-phosphate-dehydrogenase (G6PDH) working stock solution was prepared in 182 mM phosphate buffer pH7.4 and placed on ice before use. A co-factor containing MgCl2, glucose-6-phosphate and NADP+ was prepared in deionised water and placed on ice before use.
A final working solution containing liver microsomes (Xenotech) of a species of interest (human, mouse, rat, dog), previously described G6PDH and co-factors was prepared and this mix was incubated for no longer than 20 minutes at room temperature.
30 μL of the pre-heated compound dilution was added to 40 μL of pre-heated water in the Matrix tubes and 30 μL of the microsomal mix was added. Final reaction concentrations were 3 μM compound, 1 mg microsomes, 0.4 U/mL GDPDH, 3.3 mM MgCl2, 3.3 mM glucose-6-phosphate and 1.3 mM NADP+.
To measure percentage remaining of compound at time zero MeOH or ACN was added (1:1) to the well before adding the microsomal mix. The plates were sealed with Matrix Sepra Seals™ (Matrix, Cat. No. 4464) and shaken for a few seconds ensure complete mixing of all components.
The samples which were not stopped are incubated at 37° C., 300 rpm and after 1 hour of incubation the reaction was stopped with MeOH or ACN (1:1).
After stopping the reaction the samples were mixed and placed on ice for 30 min to precipitate the proteins. The plates were then centrifuged 30 min at 1200 rcf at 4° C. and the supernatant was transferred to a 96 v-bottom PP plate (Greiner, 651201) for analysis on LCMS.
These plates were sealed with sealing mats (MA96RD-04S) of www.kinesis.co.uk and samples were measured at room temperature on LCMS (ZQ 1525 from Waters) under optimized conditions using Quanoptimize to determine the appropriate mass of the parent molecule.
The samples were analyzed on LCMS with a flow rate of 1 mL/min. Solvent A was 15 mM ammonia and solvent B was methanol or acetonitrile, depending on the stop solution used. The samples were run under positive ion spray on an XBridge C18 […] (2.1×30 mm) column, from Waters.
Peak area from the parent compound at time 0 was considered to be 100% remaining. The percentage remaining after 1 hour incubation was calculated from time 0 and was calculated as the percentage remaining. The solubility of the compound in the final test concentration in buffer is inspected by microscope and results are reported.
The data on microsomal stability are expressed as a percentage of the total amount of compound remaining after 60 minutes.

[3] = biological target: T2, Recombinant human JAK2 catalytic domain (Homo sapiens, UniProt O60674); assay: JAK2 inhibition assay; format: biochemical; settings: semi-quantitative score
T2 construct: Recombinant human JAK2 catalytic domain (amino acids 808-1132; catalog number PV4210); purchased Invitrogen PV4210
T2 sequence (O60674 808-1132): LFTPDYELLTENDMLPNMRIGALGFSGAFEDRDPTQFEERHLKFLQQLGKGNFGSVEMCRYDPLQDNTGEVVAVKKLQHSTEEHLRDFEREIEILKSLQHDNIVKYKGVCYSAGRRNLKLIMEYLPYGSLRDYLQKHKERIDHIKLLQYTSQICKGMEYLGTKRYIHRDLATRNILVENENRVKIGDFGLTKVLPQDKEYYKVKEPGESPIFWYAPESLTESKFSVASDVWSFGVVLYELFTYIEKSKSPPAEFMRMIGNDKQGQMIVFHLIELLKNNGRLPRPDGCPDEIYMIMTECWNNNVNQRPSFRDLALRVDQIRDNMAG
Protocol: Recombinant human JAK2 catalytic domain (amino acids 808-1132; catalog number PV4210) was purchased from Invitrogen. 0.025 mU of JAK2 was incubated with 2.5 μg polyGT substrate (Sigma catalog number P0275) in kinase reaction buffer (5 mM MOPS pH 7.5, 9 mM MgAc, 0.3 mM EDTA, 0.06% Brij and 0.6 mM DTT, 1 μM non-radioactive ATP, 0.25 μCi 33P-gamma-ATP (GE Healthcare, catalog number AH9968) final concentrations) with or without 5 μL containing test compound or vehicle (DMSO, 1% final concentration), in a total volume of 25 μL, in a polypropylene 96-well plate (Greiner, V-bottom). After 90 min at 30° C., reactions were stopped by adding of 25 μL/well of 150 mM phosphoric acid. All of the terminated kinase reaction was transferred to prewashed (75 mM phosphoric acid) 96 well filter plates (Perkin Elmer catalog number 6005177) using a cell harvester (Perkin Elmer). Plates were washed 6 times with 300 μL per well of a 75 mM phosphoric acid solution and the bottom of the plates was sealed. 40 μL/well of Microscint-20 was added, the top of the plates was sealed and readout was performed using the Topcount (Perkin Elmer). Kinase activity was calculated by subtracting counts per minute (cpm) obtained in the presence of a positive control inhibitor (10 μM staurosporine) from cpm obtained in the presence of vehicle. The ability of a test compound to inhibit this activity was determined as: Percentage inhibition=((cpm determined for sample with test compound present−cpm determined for sample with positive control inhibitor) divided by (cpm determined in the presence of vehicle−cpm determined for sample with positive control inhibitor))*100%.
as §1, with “JAK2” for “JAK1”

T1 sequence (P23458 850-1154): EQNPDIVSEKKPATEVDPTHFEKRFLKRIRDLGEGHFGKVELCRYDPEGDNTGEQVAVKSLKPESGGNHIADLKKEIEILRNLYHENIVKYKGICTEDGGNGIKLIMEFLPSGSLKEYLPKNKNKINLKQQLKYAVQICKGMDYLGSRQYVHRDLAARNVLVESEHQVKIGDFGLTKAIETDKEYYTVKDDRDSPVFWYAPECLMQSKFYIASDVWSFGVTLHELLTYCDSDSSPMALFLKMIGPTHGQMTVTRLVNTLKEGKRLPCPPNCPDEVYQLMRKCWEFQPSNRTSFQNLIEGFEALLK

SMILES	IC50 [1]	Microsomal stability Rat (%), compound remaining after 60 minutes [2]	IC50 [3]
O=C(Nc1nc2cccc(-c3ccc(OCc4ccccn4)cc3)n2n1)C1CC1 [Compound 37, N-(5-(4-(pyridin-2-ylmethoxy)phenyl)-[1,2,4]triazolo[1,5-a]pyridin-2-yl)cyclopropanecarboxamide]	0.1 to 100 nM	79.47%	1 to 100 nM
CC(=O)Nc1ccc(COc2ccc(-c3cccc4nc(NC(=O)C5CC5)nn34)cc2)cc1 [Compound 92, N-(5-(4-(4-acetamidobenzyloxy)phenyl)-[1,2,4]triazolo[1,5-a]pyridin-2-yl)cyclopropanecarboxamide]	0.1 to 100 nM	23.6%	
O=C(Nc1nc2cccc(-c3ccc(OCc4ccccc4)cc3)n2n1)C1CC1 [Compound 12, N-(5-(4-(benzyloxy)phenyl)-[1,2,4]triazolo[1,5-a]pyridin-2-yl)cyclopropanecarboxamide]	0.1 to 100 nM	94%	1 to 100 nM
N#Cc1ccc(COc2ccc(-c3cccc4nc(NC(=O)C5CC5)nn34)cc2)cn1 [Compound 176, N-(5-(4-((6-cyanopyridin-3-yl)methoxy)phenyl)-[1,2,4]triazolo[1,5-a]pyridin-2-yl)cyclopropanecarboxamide]	0.1 to 100 nM	90.21%	1 to 100 nM
O=C(Nc1nc2cccc(-c3ccc(OCc4ccccc4)nc3)n2n1)C1CC1 [Compound 57, Cyclopropanecarboxylic acid [5-(6-benzyloxy-pyridin-3-yl)-[1,2,4]triazolo[1,5-a]pyridin-2-yl]-amide]	0.1 to 100 nM	34.5%	1 to 100 nM

Continued, values first:

IC50 [1]	Microsomal stability Rat (%), compound remaining after 60 minutes [2]	IC50 [3]	SMILES
0.1 to 100 nM	2.2%	1 to 100 nM	O=C(Nc1nc2cccc(-c3ccc(NCc4ccccc4)cc3)n2n1)C1CC1 [Compound 72, N-(5-(4-(benzylamino)phenyl)-[1,2,4]triazolo[1,5-a]pyridin-2-yl)cyclopropanecarboxamide]
0.1 to 100 nM	93.85%	1 to 100 nM	O=C(Nc1nc2cccc(-c3ccc(OCc4ccc(C(F)(F)F)nc4)cc3)n2n1)C1CC1 [Compound 78, N-(5-(4-((6-(trifluoromethyl)pyridin-3-yl)methoxy)phenyl)-[1,2,4]triazolo[1,5-a]pyridin-2-yl)cyclopropanecarboxamide]
0.1 to 100 nM	72.41%	1 to 100 nM	O=C(Nc1nc2cccc(-c3ccc(OCc4cccnc4)cc3)n2n1)C1CC1 [Compound 36, N-(5-(4-(pyridin-3-ylmethoxy)phenyl)-[1,2,4]triazolo[1,5-a]pyridin-2-yl)cyclopropanecarboxamide]

Source: patent US8242274B2, “Triazolopyridine kinase inhibitors useful for the treatment of degenerative and inflammatory diseases” (Galapagos NV, priority 2008, dated 2012)
